From US20250082656A1, “DOSAGE REGIMENS FOR TREATMENT OF DENGUE INFECTION” (Atea Pharmaceuticals, Inc., priority 2022, published 2025)
Like-named read-outs stand apart in the source and are kept apart here.

Assays:
[1] = Pharmacokinetic study in SAD cohorts; format: in vivo, human; settings: for dose proportionality of plasma exposure: dose range 250 to 1500 mg; for Urine Elimination: following single oral administration of Compound 2 at 250 to 1500 mg; for AUCInf / Cmax / T1/2 / Tmax: human plasma; for CLR: human
Method: (§1) Pharmacokinetic measurements for FIGS. 11, 12, 13, 14, and 15 were analyzed using LC-MS/MS according to the protocol described herein. Plasma samples were prepared for MS analysis by adding internal standards and extracting with 20 volumes chilled ACN. After vortex (800 rpm for 10 min) and centrifugation (4,000 rpm, 15 min, 4° C.), the supernatants (25 μL) were diluted with an equal volume of H2O, mixed and spun again. After adding internal standards, the PBMC samples (10^6 cells) were lyzed with 300 μL MeOH/H2O (70:30, v/v) and 40 mM dibutylammonium acetate (DBAA), mixed by vortex and centrifuged (12,000 rpm, 15 min, 4° C.). Aliquots of the supernatants (35 μL) were dried under nitrogen and reconstituted in H2O, then mixed and spun again. […] A binary nonlinear gradient with mobile phases A (0.1% formic acid in water) and B (0.1% formic acid in ACN) were used to elute samples at 0.8 mL/min, with a run time of 5 min. […] A binary nonlinear gradient with mobile phases A (0.001% NHr H2O, 0.18 mM DBAA in H2O) and B (10 mM N,N-dimethyl-hexylamine, 3 mM NH4OAc in ACN/H2O (50.50, v/v)) were used to elute samples at 0.5 mL/min, with a run time of 3 min. Standards in 50% MeOH were used for calibration. […] Internal standards (ISS) as described previously (Good et al., Preclinical evaluation of AT-527, a novel guanosine nucleotide prodrug with potent, pan-genotypic activity against hepatitis C virus. PLos One 15:e02271045) were used to correct for variations in recovery.
(§2) Data analysis of the pharmacokinetic data generated according to Example 21 and presented in FIGS. 11, 12, 13, 14, and 15 was analyzed according to the procedure described herein. Plasma concentrations of Compound 1 (AT-281), Compound 3 (AT-551) and Compound 6 (AT-273) were subjected to non-compartmental pharmacokinetic analysis using Phoenix WinNonlin software (version 6.3 or above, Pharsight, Mountain View, CA). The linear/log trapezoidal rule was applied in obtaining the PK parameters.

[2] = Plasma PK after single oral dose of AT-752, rats; format: in vivo, SD rats; settings: Rat, single oral AT-752 300 mg/kg, plasma
Method: (§3) Male SD rats were administered 300 mg/kg Compound 2 (AT-752). Blood samples were collected up to 24 hrs. post dose, plasma separated and analyzed for Compound 1 (AT-281), Compound 3 (AT-551), and Compound 6 (AT-273) by LC-MS/MS. Data are express as mean+/−SD (n=3-5/time point). The x-axis is time post the dose measured in hours and the y-axis is the plasma concentration of the metabolites measured in nanomoles/mL). The experimental procedure is provided in Example 14.
Male naïve SD rats (Beijing Vital River Laboratory Animals Co. Ltd., China) were administered a dose of AT-752 at 300 mg/kg in 40% PEG400, 10% solutol HS15, 50% 100 mM citrate buffer, pH 4.5 (v/v) by oral gavage. Blood samples (n=4) were collected at 1, 2, 4, 8, 12 and 24 h post-dose, plasma separated and stored at −70° C. […] For PBMCs, nine male naïve SD rats were administered a dose of Compound 2 (AT-752) (at a Compound 1 (AT-281) equivalent dose of 300 mg/kg) by oral gavage.
as §1, §2

[3] = steady-state, human plasma; for AUCtau / Cmax: mean±SD; for Tmax: median (minimum-maximum)
[4] = Plasma PK after single oral dose of AT-752, mice; settings: Mouse, single oral AT-752 420 mg/kg
[5] = Plasma PK after single oral dose of AT-752, monkeys; format: in vivo, cynomolgus monkeys; settings: Monkey, single oral AT-752 300 mg/kg, plasma
Method: as §3, with “cynomolgus monkeys” for “SD rats”
Male non-naïve cynomolgus monkeys (Hainan Jingang Laboratory Animal Co. Ltd., China), at least 2 kg body weight, were individually housed during the study in stainless steel mesh cages, provided ad libitum access to RO water, fed twice daily (except on the day of dosing when they were fed once) with ˜60 g Certified Monkey Diet each feed (Beijing Vital Keao Feed Co., Ltd., Beijing, China) and given daily treats of fresh fruit. They (n=5) were administered a dose of Compound 2 (AT-752) at 300 mg/kg in 40% PEG400, 10% solutol HS15, 50% 100 mM citrate buffer, pH 4.5 (v/v) by oral gavage, and blood samples (˜0.5 mL) were collected at 1, 2, 4, 8, 12 and 24 h post dose. Plasma was separated at each time point for pharmacokinetics, and stored at −70° C. […] Separately, three monkeys were given an oral dose of Compound 2 (AT-752) as powder in capsules at 60 mg/kg ([…] (AT-281) equivalent dose of 55 mg/kg), and blood samples collected at 12, 24 and 48 h post dose.
as §1, §2

[6] = single oral Compound 2 250 mg, fasting
[7] = single oral Compound 2 500 mg, fasting
[8] = single oral Compound 2 500 mg, fed
[9] = single oral Compound 2 500 mg, fed (high-fat/high-calorie meal)
[10] = single oral Compound 2 1000 mg, South/Southeast/East Asian origin
[11] = single oral Compound 2 1000 mg, fasting
[12] = single oral Compound 2 1000 mg, patients of South/Southeast/East Asian origin
[13] = single oral Compound 2 1500 mg, fasting

In the case of CNc1nc(N)nc2c1ncn2C1OC(COP(=O)(O)NC(C)C(=O)O)C(O)C1(C)F (stereo not drawn) [Compound 3], the “dose proportionality of plasma exposure” value [1] is reported as “greater than dose-proportional manner”, the “Urine Elimination” value [1] is reported as under 1% and the AUCInf [1, 6] is reported as 302 ± 71 ng·h/mL. The Cmax [1, 6] was 89 ± 36 ng/mL, the T1/2 [1, 6] was 2.1 ± 0.3 h and the Tmax [1, 6] was 1.0 (0.8-2.0) h. It also gave an AUCInf [1, 7] of 898 ± 437 ng·h/mL, a Cmax [1, 7] of 231 ± 155 ng/mL and a T1/2 [1, 7] of 2.4 ± 0.5 h. For the same compound, the Tmax [1, 7] was 1.0 (0.8-8.0) h, the AUCInf [1, 8] was 737 ± 289 ng·h/mL and the T1/2 [1, 8] was 2.3 ± 0.4 h. For the same compound, the Tmax [1, 8] was 3.1 (3.0-4.0) h, the Cmax [1, 9] was 154 ± 84 ng/mL and the AUCInf [1, 10] was 3320 ± 1630 ng·h/mL. The T1/2 [1, 10] was 2.0 ± 0.3 h, the Tmax [1, 10] was 0.9 (0.5-2.0) h and the AUCInf [1, 11] was 2330 ± 1060 ng·h/mL. For the same compound, the Cmax [1, 11] was 695 ± 468 ng/mL, the T1/2 [1, 11] was 2.2 ± 0.4 h and the Tmax [1, 11] was 0.8 (0.5-2.0) h. The Cmax [1, 12] was 895 ± 418 ng/mL, the AUCInf [1, 13] was 4100 ± 494 ng·h/mL and the Cmax [1, 13] was 1080 ± 217 ng/mL. For the same compound, the T1/2 [1, 13] was 3.2 ± 1.2 h, the Tmax [1, 13] was 1.5 (0.8-2.0) h and the CLR [1, 6] was 2.0 ± 0.3 L/h. The CLR [1, 7] was 2.1 ± 0.6 L/h, the CLR [1, 8] was 2.1 ± 0.4 L/h and the CLR [1, 10] was 2.1 ± 0.6 L/h. For the same compound, the CLR [1, 11] was 2.1 ± 0.6 L/h, the CLR [1, 13] was 1.9 ± 0.4 L/h and the AUC0-24 h [2] was 56.5 µM·h. It also gave a Cmax [2] of 16.5 ± 10.8 µM, an AUCtau ([3]; Compound 2 750 mg BID) of 1330 ± 503 ng·h/mL and a Cmax ([3]; Compound 2 750 mg BID) of 365 ± 159 ng/mL. For the same compound, the Tmax ([3]; Compound 2 750 mg BID) was 1.0 (0.8-2.0) h, the AUCtau ([3]; Compound 2 750 mg TID) was 944 ± 173 ng·h/mL and the Cmax ([3]; Compound 2 750 mg TID) was 245 ± 30 ng/mL. The Tmax ([3]; Compound 2 750 mg TID) was 1.5 (0.8-2.0) h, the AUCtau ([3]; Compound 2 1000 mg QD) was 1650 ± 498 ng·h/mL and the Cmax ([3]; Compound 2 1000 mg QD) was 392 ± 143 ng/mL. The Tmax ([3]; Compound 2 1000 mg QD) was 1.0 (0.8-2.0) h, the AUC0-24 h [4] was 58.7 ± 13.3 µM·h and the Cmax [4] was 45.1 ± 12 µM. The Tmax [4] was 0.5 ± 0.0 h, the AUC0-24 h [5] was 9.7 ± 2.2 µM·h and the Cmax [5] was 2 ± 0.8 µM. The Tmax [5] was 2.0 ± 0.0 h.

In the case of CNc1nc(N)nc2c1ncn2[C@@H]1O[C@H](CO)[C@@H](O)[C@@]1(C)F [Compound 7], the “dose proportionality of plasma exposure” value [1] is reported as “dose-proportional manner”, the “Urine Elimination” value [1] is reported as 10.7-17.9% and the AUCInf [1, 6] is reported as 2890 ± 680 ng·h/mL. For the same compound, the Cmax [1, 6] was 446 ± 121 ng/mL, the T1/2 [1, 6] was 16.9 ± 8.6 h and the Tmax [1, 6] was 2.1 (2.0-3.0) h. It also gave an AUCInf [1, 7] of 5480 ± 1630 ng·h/mL, a Cmax [1, 7] of 765 ± 307 ng/mL and a T1/2 [1, 7] of 15.1 ± 6.2 h. The Tmax [1, 7] was 1.0 (0.8-4.0) h, the AUCInf [1, 8] was 4310 ± 1400 ng·h/mL and the T1/2 [1, 8] was 11.2 ± 4.9 h. The Tmax [1, 8] was 4.0 (3.0-6.1) h, the Cmax [1, 9] was 488 ± 324 ng/mL and the AUCInf [1, 10] was 14000 ± 4210 ng·h/mL. The T1/2 [1, 10] was 14.7 ± 10.1 h, the Tmax [1, 10] was 1.5 (0.8-2.0) h and the AUCInf [1, 11] was 10300 ± 3070 ng·h/mL. The Cmax [1, 11] was 1640 ± 474 ng/mL, the T1/2 [1, 11] was 12.4 ± 10.7 h and the Tmax [1, 11] was 0.9 (0.8-3.0) h. For the same compound, the Cmax [1, 12] was 2010 ± 489 ng/mL, the AUCInf [1, 13] was 16700 ± 3780 ng·h/mL and the Cmax [1, 13] was 2030 ± 600 ng/mL. The T1/2 [1, 13] was 12.5 ± 3.8 h, the Tmax [1, 13] was 2.0 (1.0-2.0) h and the CLR [1, 6] was 13.7 ± 1.6 L/h. The CLR [1, 7] was 13.6 ± 5.4 L/h, the CLR [1, 8] was 12.5 ± 2.8 L/h and the CLR [1, 10] was 13.4 ± 2.5 L/h. The CLR [1, 11] was 14.2 ± 3.8 L/h, the CLR [1, 13] was 15.0 ± 2.4 L/h and the AUCtau ([3]; Compound 2 750 mg BID) was 7960 ± 2970 ng·h/mL. For the same compound, the Cmax ([3]; Compound 2 750 mg BID) was 1470 ± 404 ng/mL, the Tmax ([3]; Compound 2 750 mg BID) was 1.5 (0.8-2.2) h and the AUCtau ([3]; Compound 2 750 mg TID) was 22300 ± 14100 ng·h/mL. The Cmax ([3]; Compound 2 750 mg TID) was 1600 ± 640 ng/mL, the Tmax ([3]; Compound 2 750 mg TID) was 1.5 (1.0-2.0) h and the AUCtau ([3]; Compound 2 1000 mg QD) was 8290 ± 2290 ng·h/mL. For the same compound, the Cmax ([3]; Compound 2 1000 mg QD) was 1200 ± 284 ng/mL and the Tmax ([3]; Compound 2 1000 mg QD) was 0.9 (0.8-2.0) h.
